{"source": "ChEMBL document CHEMBL4251642", "about": "(Eur J Med Chem, 2018)", "key": {"Influenza A virus [1]": {"system": "Influenza A virus", "experiment": "Antiviral activity against Influenza A virus (A/WSN/1933(H1N1)) harboring neuraminidase H275Y mutant infected in MDCK cells assessed as inhibition of virus-induced cytopathic effect after 48 hrs by CellTiter96 Aqueous non-radioactive cell proliferation assay", "assay_type": "functional, organism-based"}, "Influenza A virus [2]": {"system": "Influenza A virus", "experiment": "Antiviral activity against Influenza A virus (A/WSN/1933(H1N1)) harboring neuraminidase H275Y mutant infected in BALB/c mouse assessed as mouse survival at 0.96 umol/day, po for 5 consecutive days measured on day 14 post dose", "assay_type": "functional"}, "Mus musculus": {"system": "Mus musculus", "experiment": "Toxicity in BALB/c mouse infected with Influenza A virus (A/WSN/1933(H1N1)) harboring neuraminidase H275Y mutant assessed as change in body weight at 0.96 umol/day, po for 5 consecutive days", "assay_type": "organism-based", "settings": "in vivo"}, "Influenza A virus [3]": {"system": "Influenza A virus", "experiment": "Antiviral activity against Influenza A virus (A/WSN/1933(H1N1)) harboring neuraminidase H275Y mutant infected in BALB/c mouse assessed as recovery of mouse weight at 0.96 umol/day, po for 5 consecutive days measured on day 14 post dose", "assay_type": "functional, organism-based"}, "Influenza A virus [4]": {"system": "Influenza A virus", "experiment": "Antiviral activity against Influenza A virus (A/WSN/1933(H1N1)) harboring neuraminidase H275Y mutant infected in BALB/c mouse assessed as mouse survival at 0.96 umol/day, po for 5 consecutive days measured on day 10 post dose", "assay_type": "functional"}}, "note": "Activity calls are given as the source filed them. The rule behind the calls is not given here.", "data": [{"smiles": "CCC(CC)[C@H](NC(C)=O)[C@@H]1[C@H](OC(=O)NCCCNC(=O)/C=C/c2ccc(O)c(O)c2)[C@@H](C(=O)O)C[C@H]1NC(=N)N", "values": [{"measurement": "EC50", "setting": "Influenza A virus [1]", "result": 18.1, "unit": "nM"}, {"measurement": "Survival", "setting": "Influenza A virus [2]", "result": 90, "unit": "%"}, {"measurement": "Activity", "setting": "Mus musculus", "result": "Non-Toxic"}, {"measurement": "Activity", "setting": "Influenza A virus [3]", "result": "Active"}]}, {"smiles": "CCC(CC)[C@H](NC(C)=O)[C@@H]1[C@H](OC(=O)NCCCN)[C@@H](C(=O)O)C[C@H]1NC(=N)N", "values": [{"measurement": "EC50", "setting": "Influenza A virus [1]", "result": 405, "unit": "nM"}]}, {"smiles": "CCC(CC)[C@H](NC(C)=O)[C@@H]1[C@H](OC(=O)NCCCOCCCc2ccc(O)c(O)c2)[C@@H](C(=O)O)C[C@H]1NC(=N)N", "values": [{"measurement": "EC50", "setting": "Influenza A virus [1]", "result": 71.6, "unit": "nM"}, {"measurement": "Activity", "setting": "Influenza A virus [2]", "result": "Active"}, {"measurement": "Activity", "setting": "Mus musculus", "result": "Non-Toxic"}, {"measurement": "Activity", "setting": "Influenza A virus [3]", "result": "Active"}]}, {"smiles": "CCOC(=O)C1=C[C@@H](OC(CC)CC)[C@H](NC(C)=O)[C@@H](N)C1", "note": "[OSELTAMIVIR]", "values": [{"measurement": "Survival", "setting": "Influenza A virus [4]", "result": 20, "unit": "%"}]}, {"smiles": "CCC(CC)[C@H](NC(C)=O)[C@@H]1[C@H](OC(=O)NCCCOC(=O)/C=C/c2ccc(O)c(O)c2)[C@@H](C(=O)O)C[C@H]1NC(=N)N", "values": [{"measurement": "EC50", "setting": "Influenza A virus [1]", "result": 15.5, "unit": "nM"}, {"measurement": "Activity", "setting": "Influenza A virus [2]", "result": "Active"}, {"measurement": "Activity", "setting": "Mus musculus", "result": "Non-Toxic"}, {"measurement": "Activity", "setting": "Influenza A virus [3]", "result": "Active"}]}, {"smiles": "CCC(CC)OC1C=C(C(=O)O)C[C@H](N)[C@H]1NC(C)=O", "note": "(some centres not stated)", "values": [{"measurement": "EC50", "setting": "Influenza A virus [1]", "result": 3520, "unit": "nM"}]}, {"smiles": "CCC(CC)[C@H](NC(C)=O)[C@@H]1[C@H](OC(=O)NCCCO)[C@@H](C(=O)O)C[C@H]1NC(=N)N", "values": [{"measurement": "EC50", "setting": "Influenza A virus [1]", "result": 1010, "unit": "nM"}]}, {"smiles": "CCC(CC)[C@H](NC(C)=O)[C@@H]1[C@H](O)[C@@H](C(=O)O)C[C@H]1NC(=N)N", "note": "[PERAMIVIR ANHYDROUS]", "values": [{"measurement": "EC50", "setting": "Influenza A virus [1]", "result": 643, "unit": "nM"}]}]}
